From patent publication US20110104662A1, “Methods of Detecting Inhibitors of VIF-Mediated APOBEC3G Degradation and HIV” (RIGEL PHARMACEUTICALS, INC., priority 2007, published 2011)
Where a SMILES comes first, the peptide text is derived from it. The star is where a group is joined. Cbz = O=C(OCc1ccccc1)*

Experiments:
A3G-luciferase (A3G-luc) [1] = assay: APOBEC3G-luciferase activity in 293T cell lysate of co-transfected virus producer cells; type: cell-based; conditions: 10 uM MG132
From the text: (§1) In all embodiments employing cotransfection of a wild-type or Δvif HIV genome together with an APOBEC3G-fluorescent reporter fusion, adjusting the relative ratio of plasmids encoding the wild-type (WT) or Δvif HIV genomes and A3G-luciferase (A3G-luc) for cotransfection in virus producer cells (e.g., 293T cells) is useful for achieving an optimal signal to background ratio and dynamic assay range for antiviral compound characterization. Adjusting the cotransfection ratio is also useful for obtaining a linear correlation between the fluorescent reporter (e.g., luciferase) signal and the level of A3G-fluorescent reporter protein detected by Western blotting. The luciferase activity ratio of (Δvif HIV+A3G-luc) over (WT HIV+A3G-luc) in both virus supernatant and 293T cell lysates was measured.
(§2) 293T cells were seeded in 6-well plates at 500,000 cells/well density. On the second day, 4 μg of wild-type or delta vif HIV-1 construct and pcDNA3.1-APOBEC3G-luciferase construct plasmid DNA were co-transfected into 293T cells using Lipofectamine 2000 (Invitrogen). On the third day, cells were detached with trypsin and plated into 24-well plates at 300,000 cells/well density. On the fourth day, medium was replaced in each well with either 0.5% DMSP medium or with compound and 0.5% DMSO containing medium.
Twenty hours post dosing, the virus producing 293T cells of Example 5 were lysed with 200 μL of Bright-Glo lysis buffer in 24-well plates. Cell lysates were diluted 1:100 in PBS. 10 μL of each lysate sample were transferred to small well 96-well plates and 10 μL of Bright-Glo substrate were added to each well. The luciferase activity from the cell lysates was then detected using a Top Count reader. The total protein concentration was determined using the Quant-IT Protein Assay Kit (Molecular Probes). The luciferase activity was normalized relative to total cellular protein by dividing the background corrected luciferase light units by the total protein concentration.

[2] = tested on: Vif-mediated APOBEC3G degradation; assay: Cell-based screening assay, Vif/APOBEC3G-luciferase HeLa line; design: species or system HIV; conditions: 10 μM MG132 for 24 hours; selected blasticidin-resistant Vif/APOBEC3G-luciferase HeLa clone
From the text: Inhibitors of Vif-mediated APOBEC3G degradation were screened using a cell-based assay. The assay uses HeLa cells that stably expresses Vif and APOBEC3G fused at its C-terminus to firefly luciferase. Under steady-state conditions, there is very little luciferase activity. When degradation of the APOBEC3G-luciferase fusion is inhibited, a significant increase in the luciferase activity is observed.
Construction of screening line (Vif/APOBEC3G-luciferase HeLa line). HeLa cells were cotransfected with a 1:1 ratio of pcDNA6-Vif and pcDNA3.1-APOBEC3G-luciferase plasmids using Fugene transfection reagent. Twenty-four hours after transfection, cells were trypsinized and different dilutions plated on 10 cm dishes. After attachment, stable transfectants were selected using medium containing 10 μg/ml blasticidin S. The blasticidin resistance gene is carried in the pcDNA6-Vif plasmid. Individual clones were plated in duplicate 96-well plates, treated with either DMSO or 10 μM MG132 for 24 hours, and then assayed for luciferase activity. […] The presence of Vif and APOBEC3G-luciferase proteins was confirmed by treating cells with 10 μM MG132 overnight and analyzing cell lysates for both Vif and APOBEC3G-luciferase by western blotting (See FIG. 7B).

A3G-luciferase (A3G-luc) [3] = assay: APOBEC3G-luciferase activity in virus supernatant of co-transfected 293T cells; type: cell-based; conditions: 10 uM MG132
From the text: as §1, §2
Twenty hours post dosing, the culture supernatant from Example 5 was harvested and filtered through a 0.45μ filter. Twenty microliters of virus supernatant from each sample were transferred into a 96-Well plate. 30 μL of culture medium and 50 μL of Bright-Glo lysis buffer (Promega), were added to each well, followed by 50 μL of Bright-Glo Substrate (Promega). The luciferase activity from the virus supernatant was then detected using a Top Count reader (Perkin Elmer). The concentration of virus particles in the supernatant was determined by p24 ELISA (Perkin Elmer). The luciferase activity of the virus supernatant was then normalized relative to the concentration of virus particles by dividing the background corrected luciferase light units by the p24 values.

[4] = Experiment 1, co-transfection ratio 19:1
[5] = Experiment 1, co-transfection ratio 39:1
[6] = Experiment 1, co-transfection ratio 79:1
[7] = Experiment 1, co-transfection ratio 159:1
[8] = Experiment 2, co-transfection ratio 19:1
[9] = Experiment 2, co-transfection ratio 39:1
[10] = Experiment 2, co-transfection ratio 79:1
[11] = Experiment 2, co-transfection ratio 159:1

**Q.** Which “RLU ratio (delta vif HIV + A3G-luc/WT HIV + A3G-luc), 293 T cell lysate (RLU)” value (A3G-luciferase (A3G-luc) [1]; [4]) does the source give for CC(C)C[C@@H](C=O)NC(=O)[C@H](CC(C)C)NC(=O)[C@H](CC(C)C)NC(=O)OCc1ccccc1 [MG132] (Cbz-Leu-Leu-Leu-aldehyde) here?
**A.** The value was 2.6.

**Q.** And the “RLU ratio (delta vif HIV + A3G-luc/WT HIV + A3G-luc), 293 T cell lysate (RLU)” value (A3G-luciferase (A3G-luc) [1]; [5])?
**A.** Its value is 2.4.

**Q.** What about the “RLU ratio (delta vif HIV + A3G-luc/WT HIV + A3G-luc), 293 T cell lysate (RLU)” value (A3G-luciferase (A3G-luc) [1]; [6]) of the same compound?
**A.** The value was 3.7.

**Q.** What about the “RLU ratio (delta vif HIV + A3G-luc/WT HIV + A3G-luc), 293 T cell lysate (RLU)” value (A3G-luciferase (A3G-luc) [1]; [7]) of the same compound?
**A.** Its value is 6.8.

**Q.** And the “RLU ratio (delta vif HIV + A3G-luc/WT HIV + A3G-luc), 293 T cell lysate (RLU)” value (A3G-luciferase (A3G-luc) [1]; [8])?
**A.** Its value is 1.4.

**Q.** What about the “RLU ratio (delta vif HIV + A3G-luc/WT HIV + A3G-luc), 293 T cell lysate (RLU)” value (A3G-luciferase (A3G-luc) [1]; [9]) of the same compound?
**A.** The value was 1.8.

**Q.** What about the “RLU ratio (delta vif HIV + A3G-luc/WT HIV + A3G-luc), 293 T cell lysate (RLU)” value (A3G-luciferase (A3G-luc) [1]; [10]) of the same compound?
**A.** Its value is 2.9.

**Q.** And the “RLU ratio (delta vif HIV + A3G-luc/WT HIV + A3G-luc), 293 T cell lysate (RLU)” value (A3G-luciferase (A3G-luc) [1]; [11])?
**A.** Its value is 8.7.

**Q.** What about the “window in luciferase activity between DMSO and MG132” value [2] of the same compound?
**A.** The value was “at least a ten-fold window in luciferase activity”.

**Q.** And the “RLU ratio (delta vif HIV + A3G-luc/WT HIV + A3G-luc), Virus sup. (RLU)” value (A3G-luciferase (A3G-luc) [3]; [4])?
**A.** Its value is 3.2.

**Q.** And the “RLU ratio (delta vif HIV + A3G-luc/WT HIV + A3G-luc), Virus sup. (RLU)” value (A3G-luciferase (A3G-luc) [3]; [5])?
**A.** Its value is 5.5.

**Q.** And the “RLU ratio (delta vif HIV + A3G-luc/WT HIV + A3G-luc), Virus sup. (RLU)” value (A3G-luciferase (A3G-luc) [3]; [6])?
**A.** The value was 5.9.

**Q.** What about the “RLU ratio (delta vif HIV + A3G-luc/WT HIV + A3G-luc), Virus sup. (RLU)” value (A3G-luciferase (A3G-luc) [3]; [7]) of the same compound?
**A.** The value was 4.7.

**Q.** And the “RLU ratio (delta vif HIV + A3G-luc/WT HIV + A3G-luc), Virus sup. (RLU)” value (A3G-luciferase (A3G-luc) [3]; [8])?
**A.** Its value is 9.2.

**Q.** And the “RLU ratio (delta vif HIV + A3G-luc/WT HIV + A3G-luc), Virus sup. (RLU)” value (A3G-luciferase (A3G-luc) [3]; [9])?
**A.** The value was 3.9.

**Q.** What about the “RLU ratio (delta vif HIV + A3G-luc/WT HIV + A3G-luc), Virus sup. (RLU)” value (A3G-luciferase (A3G-luc) [3]; [10]) of the same compound?
**A.** Its value is 16.8.

**Q.** What about the “RLU ratio (delta vif HIV + A3G-luc/WT HIV + A3G-luc), Virus sup. (RLU)” value (A3G-luciferase (A3G-luc) [3]; [11]) of the same compound?
**A.** The value was 9.2.
